Laboratory results taken from paper PMC8245078, “Development of novel benzofuran-isatin conjugates as potential antiproliferative agents with apoptosis inducing mechanism in Colon cancer” (Journal of Enzyme Inhibition and Medicinal Chemistry, 2021).
Read-outs that look alike come from different tables or passages of the source.

Experiments:
[1] = tested on: human skin fibroblast (HFF-1) normal cells; experiment: MTT cell viability assay on normal cells; type: cell-based; conditions: HFF-1, incubation for 24 h
Protocol: Furthermore, selective cytotoxicity of compounds 5a and 5d was studied on human skin fibroblast (HFF-1) normal cells. […]
each well, and plates were incubated for 10 minutes at room temperature. After staining, unbound dye was removed by washing five times with 1 % acetic acid and the plates were air dried. Bound stain was subsequently solubilized with 10 mM trizma base, and the absorbance was read on an automated plate reader at a wavelength of 515 nm. For suspension cells, the methodology was the same except that the assay was terminated by fixing settled cells at the bottom of the wells by gently adding 50 μL of 80 % TCA (final concentration, 16 % TCA).
Using the seven absorbance measurements [time zero, (Tz), control growth, (C), and test growth in the presence of drug at the five concentration levels (Ti)], the percentage growth was calculated at each of the drug concentrations levels. Percentage growth inhibition was calculated […]
Three dose response parameters were calculated for each experimental agent. […] The drug concentration resulting in total growth inhibition (TGI) was calculated from Ti = Tz. […]
The cytotoxicity effect of compounds on the colorectal cancer cell lines, SW620 and HT29 in addition to the normal human fibroblasts was measured by MTT (3-(4, 5-dimethylthiazol-2-yl)-2,5-diphenyltetrazolium bromide) (Sigma-Aldrich, St. Louis, MO, USA) as previously described. […]

[2] = tested on: HT-29 colorectal cancer cell line; experiment: MTT cell viability assay; type: cell-based, human; conditions: for inhibition of HT-29 cancer cells viability: 10 µM, 24 h, MTT
Protocol: In the present investigation a new set of benzofuran–isatin hybrids (5a–e and 7a–i) was synthesised to be evaluated for their potential anticancer activity towards two human colorectal cancer cell lines, SW-620 and HT-29. […] Both, SW-620 and HT-29 cells were treated with 10 µM of each compound for 24 h and the percent cell viability was calculated using MTT assay.
For this reason, compounds 5a and 5d were pursued for further studies. Starting with determination of IC50s and cytotoxic selectivity studies. Serial concentrations of compounds 5a and 5d were used to examine their impact on cell viability using MTT protocol. Results of concentration vs percent viability were charted, and the IC50 was calculated for SW-620 and HT-29 cell lines using Graph Pad prism 8 (Figure 4). […]
[(Ti-Tz)/Tz] x 100 for concentrations for which Ti<Tz […]
SW620 and HT29 colorectal cancer cell lines and HFF-1 fibroblast (ATCC, Rockville, USA) were used. HT29 cells were cultured and maintained in Dulbecco’s Modified Eagles Medium (DMEM) (GIBCO, by Thermo Fischer Scientific, NY, USA) supplemented with 10% fetal bovine serum (FBS), 100 units/mL penicillin, and 100 μg streptomycin. SW620 and HFF-1 cells were cultured in Roswell Park Memorial Institute medium (RPMI-1640) (GIBCO, by Thermo scientific, NY, USA) supplemented with 10% FBS and 1% penicillin and streptomycin (Napolitano et al., 2015). All cultures were incubated at 37 °C and humidified atmosphere of 5% […]
2.3. Cell Viability Assay
The cytotoxicity effect of compounds on the colorectal cancer cell lines, SW620 and HT29 in addition to the normal human fibroblasts was measured by MTT (3-(4, 5-dimethylthiazol-2-yl)-2,5-diphenyltetrazolium bromide) (Sigma-Aldrich, St. Louis, MO, USA) as previously described. Briefly, cells were seeded in 96 well culture plates at 5000/well for HT29 and 10,000/well for SW620 for 24 h. Cells were then incubated with different compounds from WAG1 series (1-15) 24h at 37 °C and humidified 5% CO2 incubator. Freshly prepared 10 μl of 3-(4,5-dimethylthiazol-2-yl)-2,5-diphenyltetrazolium bromide (MTT 5 mM) solution were added to the cells and further incubated for 2 h. Thereafter, 100 μl of dimethyl sulfoxide (DMSO) were added in each well and the crystals were dissolved through careful pipetting. […]
VA, USA). The experiments were performed in triplicate for each condition. […]
The total protein concentration was evaluated by the colorimetric
Bradford protein assay (BIO-RAD inc, CA, USA) at 595 nm absorbance. Lysates were loaded in […]

[3] = tested on: RPMI-8226; experiment: NCI single dose screening (10 µM); type: cell-based; conditions: Homo sapiens
[4] = Homo sapiens, HT-29, HT-29, MTT
[5] = RPMI-8226, Leukaemia, single dose 10^−5 M, read-out: GI% (cell growth inhibition percentage)

SMILES	effect on fibroblast normal cell viability [1]	inhibition of HT-29 cancer cells viability [2] [%]	IC50 ([2]; HT-29, MTT) [µM]	IC50 [2, 4] [µM]	inhibition at 10 µM [3, 5] [%]	other results
Cc1c(C(=O)N/N=C2\C(=O)Nc3ccccc32)oc2ccccc12 [Compound 5a]	little effect	> 50	8.7	9.4	–	–
Cc1c(C(=O)N/N=C2\C(=O)Nc3ccc(F)cc32)oc2ccccc12 [Compound 5b]	–	–	–	–	< 10	–
Cc1c(C(=O)N/N=C2\C(=O)Nc3ccc(Br)cc32)oc2ccccc12 [Compound 5c]	–	–	–	–	< 10	–
COc1ccc2c(c1)/C(=N/NC(=O)c1oc3ccccc3c1C)C(=O)N2 [Compound 5d]	little effect	> 50	6.5	9.8	–	–
CCCN1C(=O)/C(=N\NC(=O)c2oc3ccccc3c2C)c2ccccc21 [Compound 7b]	–	> 50	–	–	–	–
Cc1c(C(=O)N/N=C2\C(=O)N(Cc3ccccc3)c3ccccc32)oc2ccccc12 [Compound 7d]	–	–	–	–	–	inhibition at 10 µM ([3]; RPMI-8226, read-out: GI% (cell growth inhibition percentage)): < 10%
